Test results as given in patent US20240076272A1, “Activators of Heme Regulated Inhibitor Kinase (HRI)” (The Brigham and Women`s Hospital, Inc., priority 2019, published 2024).
Several values for one entry are separate records, joined by “and”; a condition that tells them apart may be missing. Equal values may be shown once.

How the values were obtained:
[1] = system: eIF2α phosphorylation (ATF-4 5′UTR luciferase reporter); assay: surrogate eIF2α phosphorylation dual-luciferase reporter (DLR) assay; format: cell-based; conditions: F/R luciferase ratio normalized to DMSO wells (F/R=1); for fold induction at 1.25 µM: read-out: Fold stimulation of ATF-4 Surrogate eIF2α @ 1.25 μM; for fold induction at 5 µM: read-out: Fold stimulation of ATF-4 Surrogate eIF2α @ 5 μM
Excerpt: The dual luciferase expression vector and other plasmids used in the Examples provided herein have been previously reported (see e.g., Ziegeler et al, J. Biol. Chem. 285 (2010) 15408-15419). The dual luciferase surrogate eIF2α phosphorylation assay, has also been previously reported (see e.g., Chen et al, Nat. Chem. Biol. 7 (2011) 610-616). Briefly, a dual Renilla and Firefly luciferase mammalian reporter vector that transcribes both mRNAs from the same bi-directional enhancer/promoter complex was utilized for generation of surrogate eIF2α phosphorylation assay (see e.g., Ziegeler et al, J. Biol. Chem. 285 (2010) 15408-15419). Both mRNAs contained the same 90 nucleotide plasmid derived 5′UTR. In addition, 5′UTR of the Firefly luciferase open reading frame was fused in-frame to the 267 nucleotide ATF-4 5′UTR (see e.g., Chen et al, Nat. Chem. Biol. 7 (2011) 610-616).
Cells expressing firefly and renilla luciferases were assayed with a dual glow luciferase assay kit, per manufacturer's instruction (Promega Inc., Madison, WI). The data calculations were carried out as the ratio of firefly to renilla luciferase signal (see e.g., Ziegeler et al, J. Biol. Chem. 285 (2010) 15408-15419). Dose-response curves were obtained, and triplicate data points were fitted to the logistical sigmoidal model using nonlinear least-squares regression performed in GraphPad Prism 6.
All newly synthesized N,N′-disubstituted ureas were initially evaluated by testing in the surrogate eIF2α phosphorylation dual-luciferase reporter (DLR) assay (see e.g., Chen et al, Nat. Chem. Biol. 7 (2011) 610-616; and Ziegeler et al, J. Biol. Chem. 285 (2010) 15408-15419). Briefly, this assay takes advantage of the fact that activated HRI phosphorylates eIF2α which inhibits eIF2 guanine nucleotide exchange factor eIF2B, responsible for exchanging the GDP in the eIF2·GDP complex for GTP. The reduction in the recycling of eIF2·GDP into eIF2·GTP interferes with the formation of eIF2·GTP·Met-tRNAi ternary complex. […] These include mRNA coding for activating transcription factor 4 (ATF-4) (see e.g., Aktas et al, Oncotarget, 4 (2013) 1606-1617; Aktas et al, Oncotarget, 6 (2015) 6902-6914; and Aktas et al, Proc. Natl. Acad. Sci. U.S.A. 95 (1998) 8280-8285).
In the present assay, firefly (F) luciferase mRNA was fused to the 5′UTR of ATF-4 mRNA that had multiple uORFs, while renilla (R) luciferase mRNA was fused to a 5′UTR lacking any uORFs. Agents that reduce the amount of the eIF2·GTP·Met-tRNAi ternary complex, such as N,N′-disubstituted ureas that activate HRI, increase F luciferase expression while reducing the R luciferase expression, resulting in an increased F/R luciferase ratio. The ureas of the present application were tested at 10 μM, 5 μM, 2.5 μM, and 1.25 μM concentrations in 96-well assay plates (see e.g., Chen et al, Nat. Chem. Biol. 7 (2011) 610-616; and Bai et al, ChemBioChem, 14 (2013) 1255-1262). The activity scores as the F/R ratios were calculated for every compound-treated well and normalized to F/R ratio of vehicle-treated (DMSO) wells in the same plate, arbitrarily set at 1 (F/R=1). Data obtained in the surrogate dual-luciferase eIF2α phosphorylation (DLR) assay for the series of 1-phenyl-3/4-(4-trifluorometyl) phenoxy-cycloalkyl)ureas (4-CF3-ΦcAlkΦUs) and 1-phenyl-3-(5-(4-(trifluoromethyl) phenoxy)pyrimidin-2-yl)ureas (4-CF3-ΦOPyΦUs) described herein are shown in Tables 1-2.

human melanoma = conditions: xenograft mice model of human melanoma; cited from earlier work

melting point [°C]	Compound	Fold stimulation of ATF-4 Surrogate eIF2α @ 1.25 μM [1]	fold induction at 1.25 µM [1]	Fold stimulation of ATF-4 Surrogate eIF2α @ 5 μM [1]	fold induction at 5 µM [1]	in vivo efficacy (human melanoma)	organ toxicity (human melanoma)
191.6 to 193	N#Cc1cc(NC(=O)N[C@H]2C[C@H](Oc3ccc(C(F)(F)F)cc3)C2)cc(C(F)(F)F)c1 [Compound 1-IV, 1-(3-Cyano-5-(trifluoromethyl)phenyl)-3-(trans-3-(4-(trifluoromethyl)phenoxy)cyclobutyl)urea]	4.4 ± 1.1 fold	4.4	10 ± 1.8 fold	10		
	N#Cc1cc(NC(=O)N[C@H]2CC[C@H](Oc3ccc(C(F)(F)F)cc3)CC2)cc(C(F)(F)F)c1 [Compound 1-VI, 1-(3-cyano-5-trifluoromethyl) phenyl-3-(trans-4-(4-(trifluoromethyl)phenoxy)cyclohexyl)urea, reference compound]	5.7 fold and 5.7 ± 1.4 fold		13.8 fold and 13.8 ± 1.5 fold		in vivo efficacy	no apparent organ toxicity
237.8 to 240.8	N#Cc1cc(F)cc(NC(=O)N[C@H]2CC[C@H](Oc3ccc(C(F)(F)F)cc3)CC2)c1 [Compound 4-VI, 1-(3-Cyano-5-fluorophenyl)-3-(trans-4-(4-(trifluoromethyl)phenoxy)cyclohexyl)urea]		4.6 ± 0.7		9.3 ± 1.3		
	N#Cc1ccc(NC(=O)N[C@H]2CC[C@H](Oc3ccc(C(F)(F)F)cc3)CC2)cc1F [Compound 5-VI, 1-(4-Cyano-3-fluorophenyl)-3-(trans-4-(4-(trifluoromethyl)phenoxy)cyclohexyl)urea]	5.5 ± 0.4 fold	5.5		10.4 ± 1		
